The results in this text go back to patent US9993449B2, “(S)-3-amino-4-(difluoromethylenyl)cyclopent-1-ene-1-carboxylic acid, and related compounds as GABA aminotransferase inactivators for the treatment of epilepsy, addiction and hepatocellular carcinoma” (NORTHWESTERN UNIVERSITY, priority 2015, dated 2018).

Molecules are shown by their SMILES. Counter-ions that a name gives are not always drawn.

Data set [1] has as its target aspartate aminotransferase (Asp-AT). As to the kind of experiment: Inhibition of aspartate aminotransferase. It is filed as biochemical. As to conditions: reversible inhibition. Here is the method:
Inhibition of Aspartate Aminotransferase by 1. Microtiter plate wells were loaded with 90 μL of an assay mixture containing 100 mM potassium phosphate at pH 7.4, 5.55 mM α-ketoglutarate, 1.11 mM NADH, 5.55 mM L-aspartate, 11.1 units of malic dehydrogenase, and various concentrations of 1. After incubation of the mixture at room temperature for a few min, 10 μL of Asp-AT (3.0 units/mL in 100 mM potassium phosphate at pH 7.4) was added. The plate was shaken at room temperature for 1 min, and the absorbance was measured at 340 nm every 6 s for 90 min. All assays were performed in duplicate (FIG. 4).

The target in data set [2] is alanine aminotransferase (Ala-AT). The data set is described as follows: Inhibition of alanine aminotransferase. To be noted: reversible inhibition. It is filed as biochemical. The source says: Inhibition of Alanine Aminotransferase by 1. The assay was identical to that with aspartate aminotransferase except L-alanine was used as the substrate and lactate dehydrogenase was the enzyme (FIG. 5).

The subject of the next data set is striatal dopamine levels. The data set is described as follows: MicroPET imaging with 11C-raclopride: cocaine- or nicotine-induced dopamine elevation in freely moving rats. The data set is classed as in vivo, rat. On the procedure: Drug addiction results from the release of dopamine in the NAcc when an addictive substance is ingested. The effect of 1 on the release of dopamine in freely moving rats was determined using in vivo micropositron emission tomography (microPET) imaging (FIG. 10). (Dewey, S. L.; Morgan, A. E.; Ashby, C. R.; Horan, B.; Kushner, S. A.; Logan, J.; Volkow, N. D.; Fowler, J. S.; Gardner, E. L.; Brodie, J. D. Synapse 1998, 30 (2), 119-129). […] MicroPET was used to measure the dissociation of the tracer [^11C]-raclopride from dopamine receptors caused by either cocaine- or nicotine-induced increases in synaptic dopamine levels (the same images were obtained with cocaine and nicotine). When animals received cocaine (n=8) or nicotine (n=6), striatal dopamine levels were rapidly elevated. (Dewey, S. L.; Chaurasia, C. S.; Chen, C. E.; Volkow, N. D.; Clarkson, F. A.; Porter, S. P.; Straughter-Moore, R. M.; Alexoff, D. L.; Tedeschi, D.; Russo, N. B.; Fowler, J. S.; Brodie, J. D. Synapse 1997, 25 (4), 393-398). […] Therefore, 1 blocks both cocaine- and nicotine-induced elevations in dopamine.
MicroPET imaging. Adult male rats (Sprague-Dawley, 200-250 grams, n =16) were obtained from Taconic Farms. Animals were maintained on a 12/12 light-dark cycle. Scanning was performed using a Siemen's Inveon. All emission scans were corrected for attenuation. Animals received baseline microPET scans using either ^11C-raclopride or ^18FDG as described previously. (Patel, V. D.; Lee, D. E.; Alexoff, D. L.; Dewey, S. L.; Schiffer, W. K. Neuroimage 2008, 41 (3), 1051-1066.) Uptake of both radiotracers occurred while animals were awake and freely moving. Immediately prior to microPET scanning, all animals were anesthetized and maintained under isoflurane.

A further data set has as its target T1, hERG channel (Homo sapiens, UniProt Q12809).
T1 construct: host or cells: CHO-K1
The data set is described as follows: Inhibition of the hERG channel (automated whole-cell patch clamp, hERG CHO-K1 cell line). It is filed as cell-based. To be noted: 0.1 μM, 1 μM, and 10 μM; 5 min at room temperature. Here is the method: Inhibition of the hERG Channel. The experiments were performed by Eurofins Panlabs (Redmond, Wash. 98052, USA). hERG CHO-K1 cell line was used. The test concentrations were 0.1 μM, 1 μM, and 10 μM. The incubation time was 5 min at room temperature, cumulatively. The detection method used an automated whole-cell patch clamp. The experiments were duplicated, and the % inhibition of the tail current was averaged (FIG. 7).
In general terms: Block of hERG is tested as a sign of cardiac risk.

The next data set has as its target T2, CYP2C19 (Homo sapiens, UniProt P33261).
T2 construct: tissue Eurofins Panlabs; host or cells: human liver microsomes
As to the kind of experiment: CYP2C19 inhibition (HLM, omeprazole substrate). To be noted: 10 μM, 10 min at 37° C. The data set is classed as in vitro ADME. On the procedure:
(§1) Inhibition of Microsomal Cytochromes P450. The experiments were performed by Eurofins Panlabs (Redmond, Wash. 98052, USA). CYP1A inhibition (HLM, phenacetin substrate), CYP2B6 inhibition (HLM, bupropion substrate), CYP2C8 inhibition (HLM, paclitaxel substrate), CYP2C9 inhibition (HLM, diclofenac substrate), CYP2C19 inhibition (HLM, omeprazole substrate), CYP2D6 inhibition (HLM, dextromethorphan substrate), and CYP3A inhibition (HLM, midazolam and testosterone substrates) were tested. The test concentration was 10 μM. The incubation time was 10 min at 37° C. The detection method was by HPLC-MS/MS. The experiments were duplicated, and the % inhibition of the control values was averaged (FIG. 8).

In data set [3] the target is T3, ornithine aminotransferase (OAT) (Homo sapiens, UniProt P04181).
T3 sequence (P04181 26-439): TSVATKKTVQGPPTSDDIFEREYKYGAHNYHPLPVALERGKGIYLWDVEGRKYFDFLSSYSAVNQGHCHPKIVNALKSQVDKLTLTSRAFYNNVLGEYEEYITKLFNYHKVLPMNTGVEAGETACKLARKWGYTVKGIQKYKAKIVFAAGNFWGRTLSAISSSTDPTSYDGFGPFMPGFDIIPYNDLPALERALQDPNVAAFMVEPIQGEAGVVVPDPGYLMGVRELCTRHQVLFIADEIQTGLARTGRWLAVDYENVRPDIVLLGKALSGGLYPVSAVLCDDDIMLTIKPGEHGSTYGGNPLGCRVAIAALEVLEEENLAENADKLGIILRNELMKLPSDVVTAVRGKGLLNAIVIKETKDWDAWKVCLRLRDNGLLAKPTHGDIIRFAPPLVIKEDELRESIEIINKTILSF
As to conditions: read-out: KI for inactivation of OAT.
Procedure: All assays were performed in duplicate, and the remaining OAT activity at each preincubation time at each inhibitor concentration was averaged. The natural logarithm of the percentage of the remaining OAT activity was plotted against the preincubation time at each inhibitor concentration to obtain the kobs (slope) value for each concentration. The kobs is the rate constant describing the inactivation at each inhibitor concentration. kobs is replotted against the inhibitor concentration using nonlinear regression analysis (GraphPad Prism 6™; GraphPad Software Inc.). KI and kinact were estimated from equation (3):

The target in another data set is T4, CYP2C8 (Homo sapiens, UniProt P10632).
T4 construct: tissue Eurofins Panlabs; host or cells: human liver microsomes
T4 sequence (P10632 1-490): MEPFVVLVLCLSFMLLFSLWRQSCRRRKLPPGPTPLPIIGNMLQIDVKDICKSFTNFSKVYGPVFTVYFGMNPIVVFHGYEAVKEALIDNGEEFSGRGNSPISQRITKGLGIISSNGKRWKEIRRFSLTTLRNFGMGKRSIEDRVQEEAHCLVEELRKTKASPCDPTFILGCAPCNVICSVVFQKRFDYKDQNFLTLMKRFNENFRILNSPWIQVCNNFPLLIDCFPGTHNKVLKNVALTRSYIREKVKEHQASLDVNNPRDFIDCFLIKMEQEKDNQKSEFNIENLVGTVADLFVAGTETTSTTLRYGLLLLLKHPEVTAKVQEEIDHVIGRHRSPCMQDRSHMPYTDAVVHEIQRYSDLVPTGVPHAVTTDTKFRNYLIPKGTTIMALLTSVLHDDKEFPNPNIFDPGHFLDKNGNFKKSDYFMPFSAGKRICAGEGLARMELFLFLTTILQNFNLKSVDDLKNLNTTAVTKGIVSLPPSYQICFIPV
The data set is described as follows: CYP2C8 inhibition (HLM, paclitaxel substrate). The data set is classed as in vitro ADME. As to conditions: 10 μM, 10 min at 37° C. Here is the method:
as §1

T1 sequence (Q12809 whole entry): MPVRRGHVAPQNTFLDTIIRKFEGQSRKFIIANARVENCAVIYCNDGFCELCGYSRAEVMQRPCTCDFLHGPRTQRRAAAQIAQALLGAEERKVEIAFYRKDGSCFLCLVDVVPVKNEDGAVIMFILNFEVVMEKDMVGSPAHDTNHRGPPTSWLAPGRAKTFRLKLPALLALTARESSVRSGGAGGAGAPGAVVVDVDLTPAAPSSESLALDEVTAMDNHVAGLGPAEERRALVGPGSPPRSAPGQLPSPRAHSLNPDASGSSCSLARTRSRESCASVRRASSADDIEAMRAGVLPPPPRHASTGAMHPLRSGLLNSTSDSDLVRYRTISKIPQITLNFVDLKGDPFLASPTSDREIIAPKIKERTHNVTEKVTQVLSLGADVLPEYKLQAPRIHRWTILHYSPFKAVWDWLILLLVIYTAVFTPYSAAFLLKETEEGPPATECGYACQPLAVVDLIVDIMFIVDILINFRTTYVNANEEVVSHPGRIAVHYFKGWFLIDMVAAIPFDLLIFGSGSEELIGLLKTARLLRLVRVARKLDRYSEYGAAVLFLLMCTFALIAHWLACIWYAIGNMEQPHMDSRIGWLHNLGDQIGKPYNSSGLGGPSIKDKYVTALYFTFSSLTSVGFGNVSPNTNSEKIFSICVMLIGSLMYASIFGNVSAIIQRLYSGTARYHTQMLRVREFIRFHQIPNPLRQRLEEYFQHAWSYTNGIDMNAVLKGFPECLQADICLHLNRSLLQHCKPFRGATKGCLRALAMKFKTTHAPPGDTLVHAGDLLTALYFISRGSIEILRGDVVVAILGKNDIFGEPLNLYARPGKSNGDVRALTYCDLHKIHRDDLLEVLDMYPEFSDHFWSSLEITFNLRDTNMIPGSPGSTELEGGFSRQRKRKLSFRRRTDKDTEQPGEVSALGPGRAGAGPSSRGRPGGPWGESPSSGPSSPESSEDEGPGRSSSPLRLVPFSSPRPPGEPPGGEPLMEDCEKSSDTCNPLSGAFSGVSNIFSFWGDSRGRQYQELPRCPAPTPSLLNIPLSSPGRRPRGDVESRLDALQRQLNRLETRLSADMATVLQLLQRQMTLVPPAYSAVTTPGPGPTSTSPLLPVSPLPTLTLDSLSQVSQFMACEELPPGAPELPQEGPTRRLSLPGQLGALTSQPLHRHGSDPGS
T2 sequence (P33261 whole entry): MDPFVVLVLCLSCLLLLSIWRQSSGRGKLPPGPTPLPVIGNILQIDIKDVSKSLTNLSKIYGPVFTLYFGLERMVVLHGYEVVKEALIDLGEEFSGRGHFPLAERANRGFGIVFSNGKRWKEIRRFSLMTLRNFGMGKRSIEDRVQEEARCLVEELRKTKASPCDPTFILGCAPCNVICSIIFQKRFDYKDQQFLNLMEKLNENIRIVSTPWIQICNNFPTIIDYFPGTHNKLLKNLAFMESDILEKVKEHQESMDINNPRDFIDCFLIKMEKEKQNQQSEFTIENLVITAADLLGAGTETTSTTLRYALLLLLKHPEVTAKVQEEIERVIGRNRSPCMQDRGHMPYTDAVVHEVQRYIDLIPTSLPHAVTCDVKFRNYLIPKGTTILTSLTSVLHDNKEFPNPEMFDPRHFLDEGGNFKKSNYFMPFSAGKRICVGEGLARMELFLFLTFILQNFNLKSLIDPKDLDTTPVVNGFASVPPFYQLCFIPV

What is called IC50 is the point on the concentration scale where inhibition reaches its midpoint. As to `N[C@H]1C=C(C(=O)O)CC1=C(F)F` [Compound 1, (S)-3-Amino-4-(difluoromethylenyl)cyclopent-1-ene-1-carboxylic acid Hydrochloride], the 50% inhibitory concentration (IC50) in data set [1] and in data set [2] was more than 4000 µM throughout. Also, the “suppressing the release of dopamine in the NAcc following a cocaine or nicotine challenge, compared with CPP-115” value in the data set with striatal dopamine levels was “superior to CPP-115”. Further, in the data set on striatal dopamine levels (1 given prior to cocaine, 11C-raclopride microPET), the “cocaine-induced elevations in dopamine” value is “blocks”. Also, the “nicotine-induced elevations in dopamine” value in the data set with striatal dopamine levels (1 given prior to nicotine, 11C-raclopride microPET) is “blocks”. In addition, the “inhibition of the activity of the hERG channel” value against hERG channel is listed as “does not inhibit”. Besides, the “inhibition or induction of CYP 2C19” value against CYP2C19 is recorded as “does not inhibit or induce”. For the same compound, the KI (inactivation) in data set [3] was determined as 3.3 µM. Also, the “inhibition or induction of CYP 2C8” value against CYP2C8 is “does not inhibit or induce”.
